How the values were obtained:
[1] = tested on: U87 cells; test: ROS generation, DCFH-DA assay, U87 cells; assay type: cell-based, human; conditions: 1 × 10^−5 mol/L, 24 h
Excerpt: (§1) To examine the effects of H2AcMe, H2BzMe and their complexes 1 and 2 on the generation of free radicals (reactive oxygen species, ROS), we used the 2',7'-dichlorodihydrofluorescein diacetate (DCFH-DA) assay.
(§2) ROS accumulation was detected using dichlorodihydrofluorescein diacetate (DCFH-DA, Sigma). DCFH-DA is a non-fluorescent compound, that when it is taken up by passive diffusion into the cells, is hydrolyzed by esterases to yield non-permeable DCFH. In the presence of ROS, DCFH is oxidized to the fluorescent DCF. Tumor cells were treated with the compounds for 24 h and were then incubated with DCFH-DA (1 × 10^−5 mol·L^−1) for 30 min at 37 °C. Following incubation, the cells were washed twice with PBS. Thereafter, the cells were observed under the fluorescent microscope Zeiss Axionplan coupled with a digital camera at excitation and emission wavelengths of 488 and 525 nm, respectively. Data were analyzed using ImageJ (ImageJ, National Institute of Health, Bethesda, MD, USA) and expressed as percentages of DCFDA fluorescence of the corresponding control.

[2] = target: T1, bovine serum albumin (BSA) (Bos taurus, UniProt P02769); test: Synchronous fluorescence spectra of BSA; assay type: binding; conditions: 1.0 µM BSA, up to 10.0 µM compound; for decrease of BSA synchronous fluorescence intensity at Δλ = 60 nm: tryptophan residues; for decrease of BSA synchronous fluorescence intensity at Δλ = 15 nm: tyrosine residues
T1 construct: purchased Sigma-Aldrich Brasil
T1 sequence (P02769 25-607): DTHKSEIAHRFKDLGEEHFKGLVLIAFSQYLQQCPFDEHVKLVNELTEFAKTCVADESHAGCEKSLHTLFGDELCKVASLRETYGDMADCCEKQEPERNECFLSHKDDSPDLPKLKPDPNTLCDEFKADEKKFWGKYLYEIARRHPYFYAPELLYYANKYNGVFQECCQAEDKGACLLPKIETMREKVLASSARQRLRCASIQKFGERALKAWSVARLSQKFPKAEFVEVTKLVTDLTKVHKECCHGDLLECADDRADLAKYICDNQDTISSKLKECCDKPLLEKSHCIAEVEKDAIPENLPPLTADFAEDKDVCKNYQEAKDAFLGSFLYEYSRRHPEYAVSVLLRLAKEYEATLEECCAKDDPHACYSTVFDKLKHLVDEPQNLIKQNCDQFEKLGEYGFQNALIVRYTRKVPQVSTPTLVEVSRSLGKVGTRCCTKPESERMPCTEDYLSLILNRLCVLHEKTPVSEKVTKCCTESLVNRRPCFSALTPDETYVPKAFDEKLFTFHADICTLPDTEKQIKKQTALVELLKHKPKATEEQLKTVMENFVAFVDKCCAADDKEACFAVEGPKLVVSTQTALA
Protocol: Synchronous fluorescence spectroscopy is a very useful method to study the changes in the microenvironment of tyrosine and tryptophan amino acid residues in BSA [39]. The spectra were measured after and before the addition of test compounds. The synchronous fluorescence of BSA is characteristic of tyrosine residues when the difference between excitation and emission wavelength Δλ value is 15 nm and characteristic of tryptophan residues if Δλ value is 60 nm. […] In both cases, a decrease in emission intensity of BSA with increasing complex concentration was observed. […] In the spectra at Δλ = 60 nm, an important decrease of the BSA fluorescence intensity (~41% for 1 and ~44% for 2) accompanied by a small blue shift of 1nm occurs.
(§3) The binding of the copper(II) complexes to BSA was studied using fluorescence spectra. The emission spectra were recorded in the 295–600 nm range with excitation at 280 nm. The excitation and emission slit widths and scan rates were constantly maintained for all the experiments. BSA solution (1.0 µM) was titrated by successive additions of a stock solution of the complexes (50 mM) using a micropipette. All experiments were performed at 298 K. The synchronous fluorescence spectra of BSA varying the concentration of 1 and 2 were recorded at ∆λ (difference between excitation and emission wavelength) = 15 nm and ∆λ = 60 nm.

[3] = tested on: MRC5 (Human Fetal Lung Fibroblast) cells; test: MTT cytotoxicity assay, MRC5 fibroblasts; assay type: cell-based; conditions: 48 h treatment
Protocol: (§4) The in vitro cytotoxic effects of H2AcMe, H2BzMe and complexes 1 and 2 against wild type p53 U87 and mutant p53 T98 glioblastoma cells and against MRC-5 fibroblasts cells were tested using cisplatin as a positive control. To determine the IC50 (concentration that inhibits 50% of cell survival) values the cytotoxic effects were quantified using the 3-(4,5-dimethyl-2-thioazolyl)-2,5-diphenyl tetrazolium bromide (MTT) colorimetric assay. All tested compounds were cytotoxic against both glioma cell lines in a dose-dependent way. The IC50 values (see Table 1) were found in the micromolar range. Despite their cytotoxic activity, all compounds were less toxic to fibroblasts cells than cisplatin. CuCl2 evoked only mild cytotoxicity in all cell lineages with IC50 higher than 100 µM.
(§5) U87 (p53 wild-type glioblastoma multiforme) and T98 (p53 mutant glioblastoma multiforme) malignant human tumor cells and MRC5 (Human Fetal Lung Fibroblast) cells were obtained from the American Type Culture Collection (ATCC, Manassas, VA, USA). Cell lines were grown as monolayer in Dulbecco’s Modified Eagle’s Medium (DMEM, Gibco, Rockville, MD, USA), supplemented with 10% fetal bovine serum (Cultilab, Campinas, São Paulo, Brazil) and antibiotics (50 U/mL penicillin/50 […] streptomycin), in a humidified atmosphere air/CO2 (95%/5%) at 37 °C. Cells 80% confluents were used in all experiments. For all experiments, cells were seeded in 96-well plates, at a density of 1000 cells/well. After 24 h incubation cells were treated.
(§6) To determine the IC50 values the cytotoxic effects were quantified using the 3-(4,5-dimethyl-2-thioazolyl)-2,5-diphenyltetrazolium bromide (MTT) colorimetric assay. Briefly, cells were treated with increasing concentrations (10^−12, 10^−11, 10^−10, 10^−9, 10^−8, 10^−7, 10^−6, 10^−5, 10^−4 mol·L^−1) of either cisplatin (positive control) or test compounds (H2AcMe, H2BzMe, 1 and 2). The compounds were previously dissolved in dimethyl sulfoxide (DMSO) and the final concentrations were adjusted in DMEM in such manner that the final DMSO concentration was lower than 0.5%. Following 48 h treatment, MTT reagent was added to each well. Following another 4 h of incubation at 37 °C, DMSO was added to each well to dissolve formazan precipitate and absorbance was measured at 570 nm. Tests using DMSO (0.5% in DMEM) as negative control were carried out in parallel. All tests were performed in quadruplicates with full agreement between the results. Statistical analysis was carried out by the unpaired, one-tailed Student’s t testing using a p value of 0.05. A value of p < 0.05 was considered significant.

[4] = tested on: T98 (p53 mutant glioblastoma multiforme) cells; test: MTT cytotoxicity assay, T98 cells; assay type: cell-based, human; conditions: for IC50: MTT, 48 h treatment; for selectivity index (SI = IC50MRC5/IC50tumor cell), T98: T98 vs MRC5
Protocol: as §4, §5, §6

[5] = tested on: MRC5 cells; test: ROS generation, DCFH-DA assay, MRC5 cells; assay type: cell-based, human; conditions: 1 × 10^−5 mol/L, 24 h
Excerpt: as §1, §2

[6] = target: T1, bovine serum albumin (BSA); test: Fluorescence quenching of BSA; assay type: binding; conditions: for quenching of BSA fluorescence emission intensity: 1.0 µM BSA, up to 10.0 µM compound, excitation 280 nm, pH 7.20, 25 °C; for number of binding sites n (BSA): Scatchard equation; for binding constant K (BSA, Scatchard): phosphate buffer pH 7.20, 25 °C; for Stern-Volmer quenching constant Ksv (BSA): λ = 345 nm, 25 °C
Protocol: Based on fluorescence data for λ = 345 nm at 25 °C, the Stern-Volmer quenching constant (Ksv) and the bimolecular quenching rate constant (kq) were obtained using the classical Stern-Volmer equation (Equation (3)). The value of kq was calculated by the Ksv/τ0 ratio, where τ0 is the average lifetime of the fluorophore in the absence of quencher (τ0 =10 ns for BSA).
The interaction of complexes 1 and 2 with bovine serum albumin (BSA) was studied in phosphate buffer (8.3 mM, pH = 7.20). Stock solution of BSA (0.5 mM) was prepared in phosphate buffer and stored in the dark in the refrigerator for further use. The stock solutions of complexes were freshly prepared by first dissolving the compounds in DMF and then making the dilutions with phosphate buffer (pH = 7.20). The amount of DMF was kept less than 5% (by volume) for each set of experiment and had no effect on any experimental results.
as §3
If it is assumed that the binding of compounds with BSA occurs at equilibrium, the equilibrium binding constant can be analyzed according to the Scatchard equation [28].

[7] = tested on: U87 (p53 wild-type glioblastoma multiforme) cells; test: MTT cytotoxicity assay, U87 cells; assay type: cell-based, human; conditions: for IC50: MTT, 48 h treatment; for selectivity index (SI = IC50MRC5/IC50tumor cell), U87: U87 vs MRC5
Protocol: as §4, §5, §6

Row | Compound | ROS levels in U87 cells compared with T98 cells [1] | decrease of BSA synchronous fluorescence intensity at Δλ = 60 nm [2] | decrease of BSA synchronous fluorescence intensity at Δλ = 15 nm [2] | IC50 [3] [µM] | IC50 [4] [µM] | selectivity index (SI = IC50MRC5/IC50tumor cell), T98 [4] | ROS levels in MRC5 cells compared with glioma cells [5] | quenching of BSA fluorescence emission intensity [6] | number of binding sites n (BSA) [6] | binding constant K (BSA, Scatchard) [6] | Stern-Volmer quenching constant Ksv (BSA) [6] | IC50 [7] [µM] | selectivity index (SI = IC50MRC5/IC50tumor cell), U87 [7]
1 | CC(=O)NN=C(c1ccccc1)c1ccccn1.[Cl][Cu][Cl] [compound 2, [dichloro(2-benzoylpyridineacetylhydrazone)copper(II)]] | equally effective in both cell lineages | ~ 44% | ~ 18% | 49.4 ± 8.83 | 29.4 ± 7.06 | 1.68 | lower levels of ROS in MRC5 than in T98 glioma cells | ~ 40% | 1.06 ± 0.01 | (1.37 ± 0.05) × 10^5 M^−1 | (0.68 ± 0.01) × 10^5 M^−1 | 5.95 ± 0.74 | 8.30
2 | CC(=O)NN=C(C)c1ccccn1.[Cl][Cu][Cl] [compound 1, [dichloro(2-acetylpyridineacetyl-hydrazone)copper(II)]] | higher levels of ROS in U87 cells | ~ 41% | ~ 16% | 22.5 ± 3.13 | 5.08 ± 0.41 | 4.42 | lower levels of ROS in MRC5 cells | ~ 35% | 1.06 ± 0.01 | (1.11 ± 0.04) × 10^5 M^−1 | (0.55 ± 0.01) × 10^5 M^−1 | 3.02 ± 0.85 | 7.45

Reference: PMC6270821, “ROS-Mediated Cytotoxic Effect of Copper(II) Hydrazone Complexes against Human Glioma Cells” (Molecules, 2014)
